For experiment [1], the target named is DNA gyrase subunit GyrB (Mycobacterium tuberculosis, UniProt P9WG45). The experiment can be described thus: SPR. In kind it is binding.
Experiment [2] deals with DNA gyrase subunit GyrA (Mycobacterium tuberculosis, UniProt P9WG47). The experiment can be described thus: SPR. In kind it is binding.

This note sets out measurements from article PMC11684895 (Briefings in Bioinformatics, 2024).

Chain of DNA gyrase subunit GyrA (P9WG47 2-838): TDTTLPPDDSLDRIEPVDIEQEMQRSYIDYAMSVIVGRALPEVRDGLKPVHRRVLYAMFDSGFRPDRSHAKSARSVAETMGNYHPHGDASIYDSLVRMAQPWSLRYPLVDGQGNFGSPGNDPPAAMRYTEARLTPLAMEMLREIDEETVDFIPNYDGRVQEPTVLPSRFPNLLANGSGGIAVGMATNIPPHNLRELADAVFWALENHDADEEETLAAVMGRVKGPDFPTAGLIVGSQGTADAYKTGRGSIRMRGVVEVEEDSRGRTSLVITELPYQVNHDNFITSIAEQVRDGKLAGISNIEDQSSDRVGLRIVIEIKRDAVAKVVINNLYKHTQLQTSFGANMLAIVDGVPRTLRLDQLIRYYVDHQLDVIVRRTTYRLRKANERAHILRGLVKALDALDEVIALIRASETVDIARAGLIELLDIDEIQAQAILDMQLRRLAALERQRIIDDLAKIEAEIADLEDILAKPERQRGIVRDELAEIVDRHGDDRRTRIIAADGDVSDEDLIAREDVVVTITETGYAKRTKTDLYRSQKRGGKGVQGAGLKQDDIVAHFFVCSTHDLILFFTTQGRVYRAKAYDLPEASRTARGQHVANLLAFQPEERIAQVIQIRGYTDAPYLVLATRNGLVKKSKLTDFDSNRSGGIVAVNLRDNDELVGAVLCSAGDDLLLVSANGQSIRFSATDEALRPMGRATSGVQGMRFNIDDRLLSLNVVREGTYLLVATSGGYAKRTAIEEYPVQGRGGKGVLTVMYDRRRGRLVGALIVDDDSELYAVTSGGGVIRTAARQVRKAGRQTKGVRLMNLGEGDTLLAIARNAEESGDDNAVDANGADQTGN
Chain of DNA gyrase subunit GyrB (P9WG45 whole entry): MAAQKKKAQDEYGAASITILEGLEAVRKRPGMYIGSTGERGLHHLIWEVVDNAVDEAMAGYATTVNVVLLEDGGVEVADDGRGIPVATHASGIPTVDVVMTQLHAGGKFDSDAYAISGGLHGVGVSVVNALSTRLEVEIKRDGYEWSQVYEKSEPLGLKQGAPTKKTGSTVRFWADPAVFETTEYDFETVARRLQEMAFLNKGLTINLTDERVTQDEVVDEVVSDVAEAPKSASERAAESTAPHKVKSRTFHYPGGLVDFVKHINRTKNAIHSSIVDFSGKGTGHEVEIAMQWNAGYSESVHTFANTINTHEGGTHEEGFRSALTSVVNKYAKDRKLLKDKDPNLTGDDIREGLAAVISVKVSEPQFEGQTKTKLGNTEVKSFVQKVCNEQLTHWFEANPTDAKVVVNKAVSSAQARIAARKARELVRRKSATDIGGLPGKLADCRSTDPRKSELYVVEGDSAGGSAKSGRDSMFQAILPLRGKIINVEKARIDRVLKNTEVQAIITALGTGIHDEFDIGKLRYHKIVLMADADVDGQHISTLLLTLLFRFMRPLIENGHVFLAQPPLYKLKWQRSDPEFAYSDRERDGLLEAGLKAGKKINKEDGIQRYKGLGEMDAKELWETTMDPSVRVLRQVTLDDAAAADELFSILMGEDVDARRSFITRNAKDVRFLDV

As a reminder, the Kd is the concentration at which binding is half-saturated. The low end stands for a tighter complex, the high end for a looser complex. Take `COc1cccc2c1C(=O)c1c(O)c3c(c(O)c1C2=O)C[C@@](O)(/C(CO)=N/NC(=O)CCCCCN1C(=O)C=CC1=O)C[C@@H]3O[C@H]1C[C@H](N)[C@H](O)[C@H](C)O1` [aldoxorubicin]: the Kd was 324 nM in experiment [1] and 400 nM in experiment [2].

For `CN1CCC[C@H]1CCNC(=O)c1cn2c3c(c(N4CCC(c5cnccn5)C4)c(F)cc3c1=O)Oc1cc3ccccc3cc1-2` (stereo partly shown) [quarfloxin], the dissociation constant (Kd) in experiment [1] worked out at 30100 nM; in experiment [2], 2890 nM.
